Data from PubChem BioAssay (NCI).
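96-well plates; 48 h exposure; 5 concentrations. Endpoints by linear interpolation between flanking doses. Not reached: highest tested concentration assigned. GI50 = concentration required for 50% inhibition of growth. The concentration for full growth arrest is given as TGI.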

Legend:
Experiment in all cases: DTP human tumour cell line panel, 48 h
IGROV1 ovarian = test system: IGROV1 ovarian
MOLT-4 leukemia = test system: MOLT-4 leukemia
HOP-62 NSCLC = test system: HOP-62 NSCLC
MALME-3M melanoma = test system: MALME-3M melanoma
UO-31 renal = test system: UO-31 renal
A549 NSCLC = test system: A549 NSCLC
RPMI-8226 leukemia = test system: RPMI-8226 leukemia
U251 CNS = test system: U251 CNS
OVCAR-4 ovarian = test system: OVCAR-4 ovarian
HT29 colon = test system: HT29 colon

Row | Compound | GI50 (IGROV1 ovarian) [µM] | TGI (IGROV1 ovarian) [µM] | GI50 (MOLT-4 leukemia) [µM] | TGI (MOLT-4 leukemia) [µM] | GI50 (HOP-62 NSCLC) [µM] | TGI (HOP-62 NSCLC) [µM] | GI50 (MALME-3M melanoma) [µM] | TGI (MALME-3M melanoma) [µM] | GI50 (UO-31 renal) [µM] | TGI (UO-31 renal) [µM] | GI50 (A549 NSCLC) [µM] | TGI (A549 NSCLC) [µM] | GI50 (RPMI-8226 leukemia) [µM] | TGI (RPMI-8226 leukemia) [µM] | GI50 (U251 CNS) [µM] | TGI (U251 CNS) [µM] | GI50 (OVCAR-4 ovarian) [µM] | TGI (OVCAR-4 ovarian) [µM] | GI50 (HT29 colon) [µM] | TGI (HT29 colon) [µM]
1 | O=C(Cc1ccccc1)NC(c1ccc(Cl)cc1)c1c(O)ccc2ccccc12 (centres undefined) | 4.67 | 18.3 | 3.51 | 20.3 | 2.84 | 8.57 | 2.69 | 8.22 | 2.41 | 8.93 | 3.68 | 13.3 | 2.84 | 8.36 | 2.55 | 6.94 | 2.73 | 10.2 | 3.74 | 11.3
2 | NC1=CC(=O)c2nc3ccccc3c3ccnc1c23 | 1.57 | 6.33 | 3.21 | > 100 | 4.47 | > 45.1 | 0.0856 | 0.556 | 3.49 | > 56.4 | 0.132 | > 21.6 | 5.18 | > 100 | 2.17 | > 45.2 | 7.7 | > 59 | 3.52 | 21.2
3 | CSC1=Nc2c(c(C)c(C)n2COC(CO)CO)C2=NC(=O)CC(C)N12 (centres undefined) | > 100 | > 100 | > 100 | > 100 | > 100 | > 100 | > 100 | > 100 | > 100 | > 100 | > 100 | > 100 | > 100 | > 100 | > 100 | > 100 | > 100 | > 100 | > 100 | > 100
4 | O=C1c2cc([N+](=O)[O-])cc3cc([N+](=O)[O-])cc(c23)C(=O)N1CCCNCCNCCCN1C(=O)c2cc([N+](=O)[O-])cc3cc([N+](=O)[O-])cc(c23)C1=O |  | 1.74 |  | 1.41 |  | 3.07 |  | 1.33 |  | 3.35 |  | 3.6 |  | 0.278 |  | 3.49 |  | 3.31 |  | 5.25
5 | H-HIIKKIRTWYRKAWHVLGKV-NH2 | 4.32 | 28.3 | 14.2 | 57.2 | 4.59 | > 100 | 2.29 | 5.25 | 18.6 | 36.5 | 5.51 | > 100 | 8.62 | 45 | 7.17 | > 100 | 12.8 | 47.5 | 14.8 | > 100
6 | O=C(O)CP(=O)(O)O |  | > 100 |  | > 100 |  | > 100 |  | > 100 |  | > 100 |  | > 100 |  | > 100 |  | > 100 |  | > 100 |  | > 100
7 | COC(=O)C1=C(CS(=O)c2ccc([N+](=O)[O-])cc2[N+](=O)[O-])ON(C)C1c1ccccc1 (centres undefined) |  | > 100 |  | 48.5 |  | > 100 |  | > 100 |  | > 100 |  | > 100 |  | 46 |  | > 78.6 |  | > 100 |  | 55.2
8 | N#Cc1c(N)nc(NCc2ccccc2)c(C#N)c1-c1ccccc1Cl | 5.08 | 41.1 | 26.8 | > 100 | 4.47 | 18 | 21 | 90.2 | 38.1 | > 100 | 21.3 | > 100 | 48.6 | > 100 | 2.46 | 10.3 | 5.04 | 45.3 | 73.4 | > 100
9 | CC1(C)N=C(N)N=C(N)N1c1cccc(CCCCOc2ccccc2)c1 | < 0.0118 | 15.7 | 0.0629 | 36.3 | 0.663 | > 87.1 | 7.22 | 29.8 | 47.2 | > 100 | 0.0562 | 98.8 | 0.0601 | 13.6 | 0.0488 | 55.7 | 0.441 | 38.6 | < 0.01 | 15.7
10 | C=CC[C@@H]1/C=C(\C)C[C@H](C)C[C@H](OC)[C@H]2O[C@@](O)(C(=O)C(=O)N3CCCC[C@H]3C(=O)O[C@H](/C(C)=C/C3CC[C@@H](O)[C@H](OC)C3)[C@H](C)[C@@H](O)CC1=O)[C@H](C)C[C@@H]2OC (some centres undefined) | 17.3 | 41 | 14.4 | 41.6 | 16.2 | 31.1 | 14.6 | 32.1 | 12.8 | 26.4 | 12.7 | 25.7 | 8.59 | 32.2 | 14.2 | 27.7 | 13.9 | 27.2 | 17.6 | 33.5
11 | CCC(c1ccc2cc(O)ccc2c1)C(C)(C)C(=O)O (centres undefined) |  | > 100 |  | > 100 |  | > 100 |  | > 100 |  | > 100 |  | > 100 |  | > 100 |  | > 100 |  | > 100 |  | > 100
12 | Cc1cc(=O)oc2c(OS(C)(=O)=O)c(OS(C)(=O)=O)ccc12 |  | > 100 |  | > 100 |  | > 100 |  | > 100 |  | > 100 |  | > 100 |  | > 100 |  | > 100 |  | > 100 |  | > 100
13 | O=C(c1nc2ccc(Cl)cc2[nH]c1=O)C(O)c1ccc2c(c1)OCO2 (centres undefined) |  | > 100 |  | > 100 |  | > 100 |  | > 100 |  | > 100 |  | > 100 |  | > 100 |  | > 100 |  | > 100 |  | > 100
14 | CCC[CH2][Sn]1([CH2]CCC)[O]CC(CN2CCOCC2)[O]1 (centres undefined) | 12.1 | 26.1 | 2.22 | 7.88 | 8.8 | 20.4 | 1.62 | 5.64 | 10.1 | 21.7 | 18.3 | 32.2 | 1.44 | 4.7 | 3.05 | 11 | 11.2 | 23.4 | 9.65 | 23.6
15 | Brc1ccccc1C=NC12CC3CC(CC(C3)C1)C2 |  | > 100 |  | > 91.1 |  | > 100 |  | > 100 |  | > 100 |  | > 100 |  | > 100 |  | > 100 |  | > 100 |  | > 100
16 | CC(=O)OC1Oc2cc(C)c(C)cc2-c2oc(=O)c(-c3ccc(F)cc3)cc21 (centres undefined) | 7.94 | 85.2 | 3.1 | 12.1 | 12.9 | 72.5 | 5.04 | 31.7 | 4.92 | > 100 | 4.79 | > 100 | 2.52 | 9.04 | 4.06 | 45.6 | 11.3 | 63.9 | 2.7 | 12.1
17 | N=c1n(Cc2ccccc2)c(N)cc(=O)n1Cc1ccccc1 | 4.04 | > 59.8 | 1.24 | 5.38 | 1.35 | 2.68 | 2.94 | 6.87 | 2.35 | 5.37 | 1.19 | 2.56 | 3.58 | 18.1 | 3.32 | 11.7 | 2.41 | 10.5 | 3.81 | 12.8
18 | S=C(c1ccc2c(c1)OCO2)N1CCN(c2cccc(Cl)c2)CC1 | 3.88 | > 100 | 2.28 | > 55.8 | 3.27 | > 59.2 | 0.478 | > 100 | 4.3 | > 72.5 | 0.872 | > 40.2 | 0.598 | > 100 | 0.61 | > 100 | 7.45 | > 100 | 0.406 | > 100
19 | CCOC(=O)N[C@@H]1C2CC(=O)C(O2)[C@@H]1OC (some centres undefined) |  | > 100 |  | > 100 |  | > 100 |  | > 100 |  | > 100 |  | > 100 |  | > 100 |  | > 100 |  | > 100 |  | > 100
20 | CCOC(=O)c1c(Cl)c2c(n1Cc1cccc(OC)c1)-c1oncc1CC2 | 1.23 | 59 | 3.48 | > 100 | 2.89 | > 100 | 0.646 | 96.2 | 3.37 | 78.6 | 5.16 | > 100 | 5.15 | > 100 | 4.75 | > 100 | 6.46 | > 100 | 0.799 | 15.1
21 | COC1OC(COS(=O)(=O)c2ccc(C)cc2)C(O)C(OS(=O)(=O)c2ccc(C)cc2)C1OS(=O)(=O)c1ccc(C)cc1 (centres undefined) |  | > 100 |  | > 100 |  | > 100 |  | > 100 |  | > 100 |  | > 100 |  | > 100 |  | > 100 |  | > 100 |  | > 100
22 | CCOC(=O)C(C(=O)OCC)=C1N[C@H](C(=O)OCC)CS1 |  | > 100 |  | > 100 |  | > 100 |  | > 100 |  | > 100 |  | > 100 |  | > 100 |  | > 100 |  | > 100 |  | > 100
23 | Cc1[nH]nc2ccc3nc(-c4ccc5[nH]ncc5c4)c4c(c3c12)CCCC4 | 0.492 | 7.14 | 1.92 | 10.1 | 1.41 | 15.1 | 1.33 | 6.32 | 0.802 | 5.99 | 0.932 | 12.4 | 1.51 | 6.65 | 0.92 | 13.9 | 2.12 | 28 | 1.51 | 12.5
24 | CCCc1nc(NC#N)nc(C(=O)NC23CC4CC(CC(C4)C2)C3)c1C |  | > 100 |  | > 100 |  | > 100 |  | > 100 |  | > 100 |  | > 100 |  | > 100 |  | > 100 |  | > 100 |  | > 100
25 | CNC(=O)NC(CCCCNC(=O)OCc1ccccc1)C(=O)OCc1ccccc1 (centres undefined) |  | > 100 |  | 58.7 |  | > 100 |  | 64.9 |  | 98.3 |  | > 100 |  | 67.4 |  | > 97.1 |  | > 100 |  | > 100
26 | COc1cc(-n2cnc(-c3ccc(Cl)cc3)c2)cc(OC)c1OC | 30.7 | > 100 | 19.2 | 39.9 | 24.1 | 71.5 | 16.1 | 32.9 | 15.6 | 40.5 | > 100 | > 100 | 14.7 | 32.2 | 22.2 | 57.8 | 15.8 | 46.6 | 16.1 | 32.8
27 | Cc1c(-c2nnc(-c3ccc(F)cc3)o2)nnn1-c1ccnc2c(C(F)(F)F)cccc12 | 23.4 | > 100 | > 100 | > 100 | 24.4 | 78.4 | 41.7 | > 100 | 60.3 | > 100 | 32.3 | > 100 | 30.6 | > 100 | 30.4 | > 100 | 21 | > 100 | 34.4 | > 100
28 | O=C1/C(=C/c2ccccc2F)CN(C(=O)C(Cl)Cl)C/C1=C\c1ccccc1F | 0.351 | 1.44 | 0.329 |  | 0.906 | 2.44 | 0.599 | 1.92 | 0.44 | 1.67 | 1.38 | 3.32 | 0.0831 | 0.935 | 0.213 | 0.665 | 0.526 | 1.83 | 0.271 | 1.06
